Series [1] is described as follows: Hydrolysis in rat liver homogenates of free or SLM-encapsulated Fer-Ger. In kind it is in vitro ADME. Here is the method:
Since SLMs were suspended in the medium, it was difficult to withdraw several homogeneous samples, and consequently, stability was assessed by a single sampling after 10 min of incubation. Dichloromethane (1 mL) was added, and 250 μL was withdrawn from the samples and quenched in 500 μL of ice-cold ethanol added with 100 μL of internal standard (100 μM carbazole dissolved in ethanol). After 5 min of centrifugation at 16,000× g, 600 μL aliquots were reduced to dryness under a nitrogen stream. […] The same procedure was adopted for free Fer-Ger by adding appropriate amounts of stock solution in DMSO to a volume of 3 mL of rat liver homogenates in order to obtain the final concentration of 30 µM (9.92 µg/mL). In this case, the Fer-Ger hydrolysis was analyzed both in the absence or in the presence of unloaded Ts SLMs or Ts-glu SLMs, whose amounts were equivalent to those of their parent-loaded FG Ts SLMs or FG Ts-glu SLMs, respectively. All the values obtained are the means of four independent experiments.

Another series is described as follows: Solubility measurements. In kind it is physicochemical. Conditions: 25 °C, thermodynamic from solid. The procedure: Solubility measurements of pure Fer-Ger were performed by adding an excess amount of Fer-Ger (about 10 mg) in 5 mL of pure water, DPBS, or a mixture made of DPBS and methanol (70:30 v/v) at 25 °C. The samples were magnetically stirred for 48 h. The supernatant was filtered through a 0.45 μm regenerate-cellulose membrane filter, and 10 µL of the filtered samples were injected into the HPLC-DAD system for Fer-Ger quantification. The study was performed in triplicate.

The next series has as its system differentiated N2a cells. In words: DCFH-DA assay of intracellular ROS production. In kind it is cell-based, mouse. Here is the method: N2a cells were seeded on T75 flasks and grown in Dulbecco’s Modified Eagle Medium (DMEM) containing Glutamax, supplemented with 100 μg/mL streptomycin, 100 IU/mL penicillin, and 10% fetal bovine serum (FBS) in a humidified 5% CO2 atmosphere at 37 °C. After two passages by trypsinization, cells were seeded at a density of 5 × 10^3 cells/well in 12-well plates with 2 mL of DMEM or at a density of 5 × 10^2 cells/well in 96-well plates with 0.2 mL of DMEM, depending on the study (see below). For neural differentiation, N2a cells were allowed to adhere and proliferate in wells for 4 days; then, after washing once with serum-free DMEM, differentiating medium composed of DMEM containing 1% HS and 20 μM all-trans-retinoic acid (atRA) was added in both the seeding conditions, up to 6 days of differentiation, after which the cells were used for the experiments.
The potential antioxidant effect of Fer-Ger was evaluated according to the original method of Wang and Joseph. In this method, the nonpolar 2′,7′-dichlorofluorescin diacetate (DCFH-DA) enters the intact cells and is hydrolyzed by intracellular esterases to nonfluorescent DCFH carboxylate anion, which remains entrapped and becomes the high fluorescent dichlorofluorescin (DCF) after oxidation by free radicals generated by a stressor, such as H2O2. Therefore, H2O2-induced intracellular ROS production was measured in N2a cells by a florescence intensity assay following exposure to the oxidation-sensitive dye DCFH-DA. N2a cells were seeded at a density of 1 × 10^4 cells/well in a black-coated and clear bottom 96-well plate and neuron-differentiated as reported above. After 6 days, differentiating medium in N2a cells was replaced with pre-warmed phenol-red-free and serum-free DMEM containing 10 µM DCFH-DA and incubated for 30 min in the dark in a humidified 5% CO2 atmosphere at 37 °C. The 10 µM DCFH-DA loading solution was then removed, and the cells were washed twice with fresh phenol-red-free and serum-free DMEM to remove the redundant extracellular DCFH-DA probe. Subsequently, N2a cells were incubated with pre-warmed phenol-red free DMEM containing 1% FBS as an untreated control and with solutions dissolved in phenol-red free DMEM containing 1% FBS of Fer-Ger (1, 5, or 10 µM) or 100 µM ascorbic acid (AA, as an established antioxidant positive control) and incubated for 1 h in a humidified 5% CO2 atmosphere at 37 °C. After this time, 100 µM H2O2 was added in the absence or presence of 1, 5 or 10 µM Fer-Ger or 100 µM AA, and the fluorescence intensity was measured at an excitation wavelength of 485 nm and at an emission wavelength of 530 nm, monitoring the oxidation of DCFH to DCF by the intracellular ROS by running the kinetic over 75 min in a fluorescence microplate reader (VICTOR^3TM 1420 Multilabel counter, PerkinElmer, Milan, Italy). Results were represented as a percentage of intracellular ROS production (100% of control) resulting from the mean values ± SEM of sextuplicate wells over time.

Series [2] is described as follows: Kinetic analysis (stability) in Tris-HCl buffer. In kind it is physicochemical. To be noted: Tris-HCl buffer pH 7.4 (with MeOH 70:30), 37 °C, three hours, 20 µM. The procedure:
Kinetic analysis of Fer-Ger was performed by its incubation at 20 µM (6.61 µg/mL) final concentration and at 37 °C in 30 mL of a mixture of Tris-HCl buffer 50 mM (pH 7.4) and MeOH 70:30 (v/v). […] All the values were derived from the mean of three independent incubation experiments.
Fer-Ger and its hydrolysis product, Ger, were quantified by HPLC. The chromatographic apparatus consisted of a modular system (model LC-40D) pump and DAD detector (model SPD-M40, Shimadzu, Kyoto, Japan) and an injection valve with a 20 μL sample loop (model 7725; Rheodyne, IDEX, Torrance, CA, USA).

Values after ≈ are worked out from the molar mass of the structure shown. Values joined by “and” are separate entries in the source; they are usually repeats but may differ in a detail not shown here. Equal values may be shown once. Read-outs that look alike come from different tables or passages of the source.

One may read the solubility as how much of the substance goes into solution per volume.

Take `COc1cc(/C=C/C(=O)OC/C=C(\C)CCC=C(C)C)ccc1O` [Fer-Ger, Geranyl ferulate]: the “hydrolysis rate in the presence of unloaded SLMs” value in series [1] (free Fer-Ger in rat liver homogenates with unloaded SLMs) is “substantially unaffected”. The prodrug hydrolyzed result in series [1] (free solubilized prodrug, 10 min incubation in rat liver homogenates, about 30 μM) was “about 90%”. Further, the solubility at 48 h in “Solubility measurements” (DPBS, aqueous buffer, read-out: solubility in DPBS) is 0.24 ± 0.01 µg/mL (≈ 0.726 µM); in “Solubility measurements” (DPBS/methanol 70:30 v/v, aqueous with cosolvent or surfactant or cyclodextrin, DPBS and MeOH 70:30 v/v, read-out: solubility in mixture of DPBS and MeOH), 8.1 ± 0.3 µg/mL (≈ 24.5 µM); in the series “Solubility measurements” (pure water, water, read-out: water solubility) it was 0.26 µg/mL and 0.77 µM. The “effect on basal ROS production” value with differentiated N2a cells (Fer-Ger 1, 5 and 10 µM alone, 75 min) was “did not affect the ROS production”. Besides, the “effect on H2O2-induced ROS production” value in the series on differentiated N2a cells (Fer-Ger 1, 5 and 10 µM with 100 µM H2O2, all times tested, p < 0.05) is “increased the H2O2-induced ROS production”. Moreover, the “degradation in Tris-HCl buffer” value in series [2] is “not degraded”.

Source of the values: paper PMC11172460 (International Journal of Molecular Sciences, 2024).
